Each compound was assayed on WT Mtb Erdman strain (assay: Microplate Alamar Blue Assay (MABA), Mtb growth inhibition). Details: Mycobacterium tuberculosis, ERDMAN, 168 h, Middlebrook 7H9 media, 7 days at 37° C. in 5% CO2.
Assay type: cell-based, Mycobacterium tuberculosis

Row | SMILES | IC50
1 | Cc1cc2c(NCCCc3ccccc3)nc(C3CCOC3)nc2s1 (centres unmarked) [Example 120, 6-methyl-N-(3-phenylpropyl)-2-(tetrahydrofuran-3-yl)thieno[2,3-d]pyrimidin-4-amine] | 3000 nM
2 | Cc1cc2c(NCCCc3ccc(OC(F)(F)F)cc3)nc(-c3ccon3)nc2s1 [Example 121, 2-(isoxazol-3-yl)-6-methyl-N-(3-(4-(trifluoromethoxy)phenyl)propyl)thieno[2,3-d]pyrimidin-4-amine] | 130 nM
3 | Cc1cc(-c2nc(NCCCc3ccc(OC(F)(F)F)cc3)c3cc(C)sc3n2)no1 [Example 122, 6-methyl-2-(5-methylisoxazol-3-yl)-N-(3-(4-(trifluoromethoxy)phenyl)propyl)thieno [2,3-d]pyrimidin-4-amine] | 190 nM
4 | Cc1cc2c(NCCCc3ccc(OC(F)(F)F)cc3)nc(-c3ccccn3)nc2s1 [Example 123, 6-methyl-2-(pyridin-2-yl)-N-(3-(4-(trifluoromethoxy)phenyl)propyl)thieno [2,3-d]pyrimidin-4-amine] | 1800 nM
5 | CSc1nc(NCCCc2ccc(OC(F)(F)F)cc2)c2cc(C)sc2n1 [Example 124, 6-methyl-2-(methylthio)-N-(3-(4-(trifluoromethoxy)phenyl)propyl) thieno[2,3-d]pyrimidin-4-amine] | 62 nM
6 | Cc1cc2c(NCCCc3ccc(OC(F)(F)F)cc3)nc(-c3cnsc3)nc2s1 [Example 125, 2-(isothiazol-4-yl)-6-methyl-N-(3-(4-(trifluoromethoxy)phenyl)propyl)thieno [2,3-d]pyrimidin-4-amine] | 610 nM
7 | Cc1cc2c(NCCCc3ccccc3)nc(-c3ccc(F)cc3)nc2s1 [Example 126, 2-(4-fluorophenyl)-6-methyl-N-(3-phenylpropyl)thieno [2,3-d]pyrimidin-4-amine] | 2600 nM
8 | CCc1nc(NCCc2ccc(Cl)c(Cl)c2)c2cc(C)sc2n1 [Example 127, N-(3,4-dichlorophenethyl)-2-ethyl-6-methylthieno[2,3-d]pyrimidin-4-amine] | 2800 nM
9 | Cc1cc2c(NCCCc3ccccc3)nc(-c3cscn3)nc2s1 [Example 128, 6-methyl-N-(3-phenylpropyl)-2-(thiazol-4-yl)thieno[2,3-d]pyrimidin-4-amine] | 660 nM
10 | Cc1cc2c(NCCCc3ccccc3)nc(-c3nnc[nH]3)nc2s1 [Example 129, 6-methyl-N-(3-phenylpropyl)-2-(4H-1,2,4-triazol-3-yl)thieno[2,3-d]pyrimidin-4-amine] | 5600 nM
11 | Cc1cc2c(NCCCc3ccccc3)nc(-c3cn[nH]c3)nc2s1 [Example 130, 6-methyl-N-(3-phenylpropyl)-2-(1H-pyrazol-4-yl)thieno[2,3-d]pyrimidin-4-amine] | 2200 nM
12 | Cc1cc2c(NCCCc3ccccc3)nc(-n3ccnc3)nc2s1 [Example 131, 2-(1H-imidazol-1-yl)-6-methyl-N-(3-phenylpropyl)thieno [2,3-d]pyrimidin-4-amine] | 3000 nM
13 | Cc1ccc(-c2nc(NCCCc3ccccc3)c3cc(C)sc3n2)o1 [Example 132, 6-methyl-2-(5-methylfuran-2-yl)-N-(3-phenylpropyl)thieno [2,3-d]pyrimidin-4-amine] | 6600 nM
14 | Cc1cc2c(NCCCc3ccccc3)nc(-c3cnn(C)c3)nc2s1 [Example 133, 6-methyl-2-(1-methyl-1H-pyrazol-4-yl)-N-(3-phenylpropyl)thieno [2,3-d]pyrimidin-4-amine] | 270 nM
15 | Cc1cc2c(NCCCc3ccccc3)nc(CC(C)C)nc2s1 [Example 134, 2-isobutyl-6-methyl-N-(3-phenylpropyl)thieno [2,3-d]pyrimidin-4-amine] | 440 nM
16 | Cc1cc2c(NCCCc3ccccc3)nc(C(C)Cl)nc2s1 (centres unmarked) [Example 135, 2-(1-chloroethyl)-6-methyl-N-(3-phenylpropyl)thieno [2,3-d]pyrimidin-4-amine] | 230 nM
17 | CCc1nc(NCCCc2ccc(OC(F)(F)F)c(C)c2)c2cc(C)sc2n1 [Example 136, 2-ethyl-6-methyl-N-(3-(3-methyl-4-(trifluoromethoxy)phenyl)propyl)thieno [2,3-d]pyrimidin-4-amine] | 690 nM
18 | Cc1cc2c(NCCCc3ccccc3)nc(Cc3ccc(F)cc3)nc2s1 [Example 137, 2-(4-fluorobenzyl)-6-methyl-N-(3-phenylpropyl)thieno [2,3-d]pyrimidin-4-amine] | > 10000 nM
19 | Cc1cc2c(NCCCc3ccccc3)nc(CCc3ccccc3)nc2s1 [Example 138, 6-methyl-2-phenethyl-N-(3-phenylpropyl)thieno [2,3-d]pyrimidin-4-amine] | > 10000 nM
20 | Cc1cc(-c2nc(NCCCc3ccccc3)c3cc(C)sc3n2)c(C)o1 [Example 139, 2-(2,5-dimethylfuran-3-yl)-6-methyl-N-(3-phenylpropyl)thieno [2,3-d]pyrimidin-4-amine] | > 10000 nM
21 | Cc1cc(Cc2nc(NCCCc3ccccc3)c3cc(C)sc3n2)no1 [Example 140, 6-methyl-2-((5-methylisoxazol-3-yl)methyl)-N-(3-phenylpropyl)thieno [2,3-d]pyrimidin-4-amine] | > 10000 nM

Row | SMILES | IC50
22 | Cc1nc(-c2nc(NCCCc3ccccc3)c3cc(C)sc3n2)co1 [Example 141, 6-methyl-2-(2-methyloxazol-4-yl)-N-(3-phenylpropyl)thieno [2,3-d]pyrimidin-4-amine] | 1200 nM
23 | Cc1cc2c(NCCCc3ccccc3)nc(SCc3ccccc3)nc2s1 [Example 142, 2-(benzylthio)-6-methyl-N-(3-phenylpropyl)thieno [2,3-d]pyrimidin-4-amine] | > 10000 nM
24 | Cc1cc2c(NCCCc3ccccc3)nc(-c3ncon3)nc2s1 [Example 143, 6-methyl-2-(1,2,4-oxadiazol-3-yl)-N-(3-phenylpropyl)thieno [2,3-d]pyrimidin-4-amine] | 220 nM
25 | Cc1nc2c(N[C@@H]3C[C@H]3c3ccc(F)c(F)c3)nc(-c3ccc(C(F)(F)F)cn3)nc2s1 [Example 144, N-((1R,2S)-2-(3,4-difluorophenyl)cyclopropyl)-2-methyl-5-(5-(trifluoromethyl)pyridin-2-yl)thiazolo[5,4-d]pyrimidin-7-amine] | > 10000 nM
26 | Cc1nc2c(NCCCc3ccccc3)nc(-c3ccc(C(F)(F)F)cn3)nc2s1 [Example 145, 2-methyl-N-(3-phenylpropyl)-5-(5-(trifluoromethyl)pyridin-2-yl)thiazolo[5,4-d]pyrimidin-7-amine] | 7300 nM
27 | Cc1nc2c(N[C@@H]3C[C@H]3c3ccc(F)c(F)c3)nc(-c3ccc(F)cn3)nc2s1 [Example 146, N-((1R,2S)-2-(3,4-difluorophenyl)cyclopropyl)-5-(5-fluoropyridin-2-yl)-2-methylthiazolo[5,4-d]pyrimidin-7-amine] | 5100 nM
28 | Cc1nc2c(NCCCc3ccccc3)nc(-c3ccc(F)cn3)nc2s1 [Example 147, 5-(5-fluoropyridin-2-yl)-2-methyl-N-(3-phenylpropyl)thiazolo [5,4-d]pyrimidin-7-amine] | 2100 nM
29 | Cc1nc2c(N[C@@H]3C[C@H]3c3ccc(F)c(F)c3)nc(-c3ccncn3)nc2s1 [Example 148, N-((1R,2S)-2-(3,4-difluorophenyl)cyclopropyl)-2-methyl-5-(pyrimidin-4-yl)thiazolo[5,4-d]pyrimidin-7-amine] | > 10000 nM
30 | Cc1nc2c(NCCCc3ccccc3)nc(-c3ccncn3)nc2s1 [Example 149, 2-methyl-N-(3-phenylpropyl)-5-(pyrimidin-4-yl)thiazolo[5,4-d]pyrimidin-7-amine] | 2000 nM
31 | CCOc1nc(N[C@@H]2C[C@H]2c2ccc(F)c(F)c2)c2cc(C)sc2n1 [Example 150, N-((1R,2S)-2-(3,4-difluorophenyl)cyclopropyl)-2-ethoxy-6-methylthieno[2,3-d]pyrimidin-4-amine] | 380 nM
32 | COc1nc(N[C@@H]2C[C@H]2c2ccc(F)c(F)c2)c2cc(C)sc2n1 [Example 151, N-((1R,2S)-2-(3,4-difluorophenyl)cyclopropyl)-2-methoxy-6-methylthieno[2,3-d]pyrimidin-4-amine] | 260 nM
33 | Cc1cc2c(NC/C=C/c3ccccc3)nc(C(F)(F)F)nc2s1 [Example 152, N-cinnamyl-6-methyl-2-(trifluoromethyl) thieno[2,3-d] pyrimidin-4-amine] | 440 nM
34 | Cc1cc2c(N[C@@H]3C[C@H]3c3ccc(F)c(F)c3)nc(Oc3ccccc3)nc2s1 [Example 153, N-((1R,2S)-2-(3,4-difluorophenyl)cyclopropyl)-6-methyl-2-phenoxythieno[2,3-d]pyrimidin-4-amine] | > 10000 nM
35 | Cc1cc2c(NCCCc3ccccc3)nc(Sc3ccccc3)nc2s1 [Example 154, 6-methyl-N-(3-phenylpropyl)-2-(phenylthio)thieno[2,3-d]pyrimidin-4-amine] | > 10000 nM
36 | Cc1cc2c(N[C@@H]3C[C@H]3c3ccc(F)c(F)c3)nc(Sc3ccccc3)nc2s1 [Example 155, N-((1R,2S)-2-(3,4-difluorophenyl)cyclopropyl)-6-methyl-2-(phenylthio)thieno[2,3-d]pyrimidin-4-amine] | > 10000 nM
37 | Cc1cc2c(NCCCc3ccccc3)nc(N=[N+]=[N-])nc2s1 [Example 156, 2-azido-6-methyl-N-(3-phenylpropyl)thieno [2,3-d]pyrimidin-4-amine] | 160 nM
38 | Cc1cc2c(NCCCc3ccncc3)nc(C(F)(F)F)nc2s1 [Example 157, 6-methyl-N-(3-(pyridin-4-yl)propyl)-2-(trifluoromethyl) thieno[2,3-d] pyrimidin-4-amine] | > 10000 nM
39 | Cc1cc2c(NCCCc3cccnc3)nc(C(F)(F)F)nc2s1 [Example 158, 6-methyl-N-(3-(pyridin-3-yl)propyl)-2-(trifluoromethyl) thieno[2,3-d] pyrimidin-4-amine] | > 6900 nM
40 | Cc1cc2c(NCCCc3ccccn3)nc(C(F)(F)F)nc2s1 [Example 159, 6-methyl-N-(3-(pyridin-2-yl)propyl)-2-(trifluoromethyl)thieno [2,3-d]pyrimidin-4-amine] | > 10000 nM
41 | Cc1cc2c(NCCC(c3ccccc3)c3ccccc3)nc(C(F)(F)F)nc2s1 [Example 160, N-(3,3-diphenylpropyl)-6-methyl-2-(trifluoromethyl) thieno[2,3-d] pyrimidin-4-amine] | 1100 nM
